Target: T1, KRAS G12C 1-169, his-tagged protein, GDP-loaded (Homo sapiens, UniProt P01116, G12C)
T1 construct: KRAS G12C 1-169, his-tagged protein, GDP-loaded
Assay: Biochemical assay: covalent modification of KRAS G12C measured by mass spectrometry (RapidFire/TOF or Q-Exactive)
Type: binding
Settings: covalent binding to (modification of) KRAS G12C after a ten minute incubation period
Description: Test compounds were prepared as 10 mM stock solutions in DMSO (Fisher cat #BP-231-100). KRAS G12C 1-169, his-tagged protein, GDP-loaded is diluted to 2 μM or 0.5 μM in buffer (20 mM Hepes, 150 mM NaCl, 1 mM MgCl2). Compounds were tested for activity as follows:
Compounds were diluted to 50× final test concentration in DMSO in 96-well storage plates. Compound stock solutions were vortexed before use and observed carefully for any sign of precipitation. Dilutions are as follow: • For 100 μM final compound concentration, compounds were diluted to 5000 μM (5 μL 10 mM compound stock+5 μL DMSO and mixed well by pipetting. • For 30 μM final compound concentration, compounds were diluted to 1500 μM (3 μL 10 mM compound stock+17 μL DMSO) and mixed well by pipetting. • For 10 μM final compound concentration, compounds were diluted to 500 μM (2 μL 10 mM compound stock+38 μL DMSO) and mixed well by pipetting. 49 μL of the stock protein solution was added to each well of a 96-well PCR plate (Fisher cat #1423027). 1 μL of the diluted 50× compounds were added to appropriate wells in the PCR plate using 12-channel pipettor. Reactions were mixed carefully and thoroughly by pipetting up/down with a 200 μL multi-channel pipettor. The plate was sealed well with aluminum plate seal, and stored in drawer at room temperature for 10 minutes, 30 minutes, 2 hours or 24 hours. 5 μL of 2% formic acid (Fisher cat #A117) in de-ionized H2O was then added to each well followed by mixing with a pipette. The plate was then resealed with aluminum seal and stored on dry ice until analyzed as described below.
The above described assays were analyzed by mass spectrometry according to one of the following two procedures:
The MS instrument was set to positive polarity, 2 GHz resolution, and low mass (1700) mode and allowed to equilibrate for 30 minutes. The instrument was then calibrated, switched to acquisition mode and the appropriate method loaded.
After another 30 minute equilibration time, a blank batch (i.e., buffer) was run to ensure equipment is operating properly. The samples were thawed at 37° C. for 10 minutes, briefly centrifuged, and transfer to the bench top. Wells A1 and H12 were spiked with 1 μL 500 μM internal standard peptide, and the plates centrifuged at 2000×g for 5 minutes. The method was then run and masses of each individual well recorded.
The masses (for which integration data is desired) for each well were pasted into the platemap and exported from the analysis. Masses for the internal standards were exported as well. The data at 50 ppm was extracted for the +19 charge state, and identity of well A1 was assigned using the internal standard spike and integrated. Peak data was exported as a TOF list and the above steps were repeated individually, for the +20, 21, 22, 23, 24, and 25 charge states.
The masses and peak intensities of KRAS G12C protein species were measured using a Dionex RSLCnano system (Thermo Scientific) connected to a Q Exactive Plus mass spectrometer (Thermo Scientific).
[…] of sample was each loaded onto a Aeris™ 3.6 μm WIDEPORE C4 200 Å, LC Column 50×2.1 mm column maintained at 40° C. at a flow rate of 600 μL/min with 20% Solvent A (0.1% formic acid in H2O) and […] (0.1% formic acid in acetonitrile). The liquid chromatography conditions were 20% solvent B for 1 minute, 20% to 60% solvent B for 1.5 minutes, 60% to 90% solvent for 0.5 minute, 90% solvent B for 0.2 minute, 90% to 20% solvent B for 0.2 minute, and then equilibrated for 1.6 minutes before the following sample injection. The flow rate was maintained at 600 μL/min throughout the sample analysis.
The mass spectrometer was operated in profile mode at a resolution of 17500, 5 microscans, using 50 msec max injection time and an AGC target of 1×10^6, and a full mass range from 800-1850 m/z was recorded. The HCD trapping gas was optimized for maximum sensitivity for intact proteins. […]

SMILES: C=CC(=O)N1C[C@H](C)N(c2nc(OCCN3CCOCC3)nc3c(F)c(-c4c(C)ccc5[nH]nc(N)c45)c(Cl)cc23)C[C@H]1C (atropisomer, axis not shown) [Compound 58, 1-((2R,5S)-4-((S)-7-(3-amino-5-methyl-1H-indazol-4-yl)-6-chloro-8-fluoro-2-(2-morpholinoethoxy)quina-zolin-4-yl)-2,5-dimethylpiperazin-1-yl)prop-2-en-1-one]
- Binding %: + (+ indicates binding activity greater than 0% and up to 50%)

SMILES: C=CC(=O)N1C[C@H](C)N(c2nc(NC(C)=O)nc3c(F)c(-c4c(C)ccc5cnn(C)c45)c(Cl)cc23)C[C@H]1C [Compound 256, N-(4-((2S,5R)-4-acryloyl-2,5-dimethylpiperazin-1-yl)-6-chloro-7-(1,6-dimethyl-1H-indazol-7-yl)-8-fluoroquinazolin-2-yl)acetamide]
- Binding %: ++ (++ indicates binding activity from 50 to 80%)

SMILES: C=CC(=O)N1C[C@H](C)N(c2nc(N3CC(N(C)C)C3)nc3c(F)c(-c4c(C)ccc5[nH]nc(C)c45)c(Cl)cc23)C[C@H]1C (atropisomer, axis not shown) [Compound 98, 1-((2R,5S)-4-((R)-6-chloro-7-(3,5-dimethyl-1H-indazol-4-yl)-2-(3-(dimethylamino)azetidin-1-yl)-8-fluoroquinazolin-4-yl)-2,5-dimethylpiperazin-1-yl)prop-2-en-1-one]
- Binding %: +++ (+++ indicates binding activity greater than 80%)

SMILES: C=CC(=O)N1C[C@H](C)N(c2nc(N3CC(C(N)=O)C3)nc3c(F)c(-c4c(C)ccc5[nH]nc(C6CC6)c45)c(Cl)cc23)C[C@H]1C [Compound 257, 1-(4-((2S,5R)-4-acryloyl-2,5-dimethylpiperazin-1-yl)-6-chloro-7-(3-cyclopropyl-5-methyl-1H-indazol-4-yl)-8-fluoroquinazolin-2-yl)azetidine-3-carboxamide]
- Binding %: ++ (++ indicates binding activity from 50 to 80%)

SMILES: C=CC(=O)N1C[C@H](C)N(c2nc(N3CC(N(C)C)C3)nc3c(F)c(-c4c(C)ccc5cnn(C6CC6)c45)c(Cl)cc23)C[C@H]1C (atropisomer, axis not shown) [Compound 149, 1-((2R,5S)-4-((S)-6-chloro-7-(1-cyclopropyl-6-methyl-1H-indazol-7-yl)-2-(3-(dimethylamino)azetidin-1-yl)-8-fluoroquinazolin-4-yl)-2,5-dimethylpiperazin-1-yl)prop-2-en-1-one]
- Binding %: + (+ indicates binding activity greater than 0% and up to 50%)

SMILES: C=CC(=O)N1C[C@H](C)N(c2nc(NCCC(=O)N(C)C)nc3c(F)c(-c4c(C)ccc5[nH]nc(N)c45)c(Cl)cc23)C[C@H]1C [Compound 62, 3-(4-((2S,5R)-4-acryloyl-2,5-dimethylpiperazin-1-yl)-7-(3-amino-5-methyl-1H-indazol-4-yl)-6-chloro-8-fluoroquinazolin-2-ylamino)-N,N-dimethylpropanamide]
- Binding %: +++ (+++ indicates binding activity greater than 80%)

SMILES: C=CC(=O)N1C[C@H](C)N(c2nc(N3CC(N(C)C)C3)nc3c(F)c(-c4c(C)ccc5cn(C)nc45)c(Cl)cc23)C[C@H]1C (atropisomer, axis not shown) [Compound 105, 1-((2R,5S)-4-((R)-6-chloro-7-(2,6-dimethyl-2H-indazol-7-yl)-2-(3-(dimethylamino)azetidin-1-yl)-8-fluoroquinazolin-4-yl)-2,5-dimethylpiperazin-1-yl)prop-2-en-1-one]
- Binding %: ++ (++ indicates binding activity from 50 to 80%)

SMILES: C=CC(=O)N1C[C@H](C)N(c2nc(NCCCN(C)C)nc3c(F)c(-c4c(C)ccc5[nH]nc(N)c45)c(Cl)cc23)C[C@H]1C [Compound 63, 1-((2R,5S)-4-(7-(3-amino-5-methyl-1H-indazol-4-yl)-6-chloro-2-(3-(dimethylamino)propyl-amino)-8-fluoroquinazolin-4-yl)-2,5-dimethylpiperazin-1-yl)prop-2-en-1-one]
- Binding %: ++ (++ indicates binding activity from 50 to 80%)

SMILES: C=CC(=O)N1C[C@H](C)N(c2nc(N3CC(N(C)C)C3)nc3c(F)c(-c4c(C)ccc5cnn(C6CC6)c45)c(C(F)(F)F)cc23)C[C@H]1C [Compound 173, 1-((2R,5S)-4-(7-(1-cyclopropyl-6-methyl-1H-indazol-7-yl)-2-(3-(dimethylamino)azetidin-1-yl)-8-fluoro-6-(trifluoromethyl)quina-zolin-4-yl)-2,5-dimethylpiperazin-1-yl)prop-2-en-1-one]
- Binding %: +++ (+++ indicates binding activity greater than 80%)

SMILES: C=CC(=O)N1C[C@H](C)N(c2nc(OC[C@H]3CCN(C)C3)nc3c(F)c(-c4c(C)ccc5cnn(C)c45)c(Cl)cc23)C[C@H]1C [Compound 196, 1-((2R,5S)-4-(6-chloro-7-(1,6-dimethyl-1H-indazol-7-yl)-8-fluoro-2-(((S)-1-methylpyrrolidin-3-yl)methoxy)quinazolin-4-yl)-2,5-dimethylpiperazin-1-yl)prop-2-en-1-one]
- Binding %: ++ (++ indicates binding activity from 50 to 80%)

SMILES: C=CC(=O)N1C[C@H](C)N(c2nc(N3CC(N(C)C)C3)nc3c(F)c(-c4c(C)ccc5[nH]nc(C)c45)c(C(F)(F)F)cc23)C[C@H]1C [Compound 192, 1-((2R,5S)-4-(7-(3,5-dimethyl-1H-indazol-4-yl)-2-(3-(dimethylamino)azetidin-1-yl)-8-fluoro-6-(trifluoromethyl)quina-zolin-4-yl)-2,5-dimethylpiperazin-1-yl)prop-2-en-1-one]
- Binding %: +++ (+++ indicates binding activity greater than 80%)

SMILES: C=CC(=O)N1C[C@H](C)N(c2nc(N3CC(N(C)C)C3)nc3c(F)c(-c4c(C)ccc5[nH]nc(NC)c45)c(Cl)cc23)C[C@H]1C [Compound 13, 1-((2R,5S)-4-(6-chloro-2-(3-(dimethylamino)azetidin-1-yl)-8-fluoro-7-(5-methyl-3-(methylamino)-1H-indazol-4-yl)quinazolin-4-yl)-2,5-dimethylpiperazin-1-yl)prop-2-en-1-one]
- Binding %: ++ (++ indicates binding activity from 50 to 80%)

SMILES: C=CC(=O)N1C[C@H](C)N(c2nc(N3CC(N(C)C)C3)nc3c(F)c(-c4cncc5[nH]ncc45)c(Cl)cc23)C[C@H]1C [Compound 77, 1-((2R,5S)-4-(6-chloro-2-(3-(dimethylamino)azetidin-1-yl)-8-fluoro-7-(1H-pyrazolo[3,4-c]pyridin-4-yl)quinazolin-4-yl)-2,5-dimethylpiperazin-1-yl)prop-2-en-1-one]
- Binding %: + (+ indicates binding activity greater than 0% and up to 50%)

SMILES: C=CC(=O)N1C2CCC1CN(c1nc(N3CC(N(C)C)C3)nc3c(F)c(-c4c(C)ccc5[nH]nc(N)c45)c(Cl)cc13)C2 [Compound 47, 1-((1R,5S)-3-(7-(3-amino-5-methyl-1H-indazol-4-yl)-6-chloro-2-(3-(dimethylamino)azetidin-1-yl)-8-fluoroquinazolin-4-yl)-3,8-diazabicyclo[3.2.1]oc-tan-8-yl)prop-2-en-1-one]
- Binding %: ++ (++ indicates binding activity from 50 to 80%)

SMILES: C=CC(=O)N1C[C@H](C)N(c2nc(OC3CCCOC3)nc3c(F)c(-c4c(C)ccc5cnn(C)c45)c(Cl)cc23)C[C@H]1C (stereo partly drawn) [Compound 225, 1-((2R,5S)-4-(6-chloro-7-(1,6-dimethyl-1H-indazol-7-yl)-8-fluoro-2-(tetrahydro-2H-pyran-3-yloxy)quinazolin-4-yl)-2,5-dimethylpiperazin-1-yl)prop-2-en-1-one]
- Binding %: ++ (++ indicates binding activity from 50 to 80%)

From US11377441B2, “Covalent inhibitors of KRAS” (Araxes Pharma LLC, priority 2017, dated 2022)
